What all share (experiment): NCI tumour cell line growth inhibition, 48 h
Test [1] has as its system OVCAR-8 ovarian.
The test system of test [2] is HOP-62 NSCLC.
For test [3], the system named is SNB-19 CNS.
Test [4] concerns SK-MEL-2 melanoma.
The subject of test [5] is HCC-2998 colon.
The test system of test [6] is RPMI-8226 leukemia.
Test [7] relates to HCT-116 colon.
Test [8] has as its system SNB-75 CNS.
The subject of test [9] is CCRF-CEM leukemia.
Test [10] relates to NCI-H23 lung.

Where “and” joins values, the source holds several entries; their conditions need not be identical. Identical values can stand only once.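 Exposure lasted 48 hours, with cells grown in 96-well plates and compounds tested at five concentrations. Here, GI50 denotes the concentration required for 50% inhibition of growth. TGI: total growth inhibition.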

`COc1ccccc1/C=C\C(=O)c1ccccc1`: the GI50 was 4.21 µM in test [1]; 17.3 µM in test [2]; 4.38 µM in [3]; 4.36 µM in test [4]; 7.34 µM in test [5]; 2.8 µM in [6]. Moreover, the GI50 in [7] is 3.4 µM; in [8] it was 13.6 µM; in [9] it was 3.28 µM; in test [10], 13.5 µM. Moreover, the TGI amounted to 15 µM in test [1]; 32.6 µM in test [2]; 16.7 µM in [3]; 14.6 µM in [4]; 19.9 µM in test [5]; 24.7 µM in test [6]. Also, the TGI in test [7] was 11.6 µM; in test [8], 27 µM; in [9], greater than 100 µM; in test [10] it was 29.4 µM.

For the compound `CC1=C(C(=O)CC(=O)C(=O)NC2C3CC4CC(C3)CC2C4)Sc2ccccc2N1` (configuration not stated), the TGI in test [1], in [2], in [3], in test [4], in test [5] and in test [6] was greater than 100 µM each time. In addition, the TGI was greater than 100 µM in test [7], greater than 100 µM in [8], greater than 87.7 µM in [9] and greater than 100 µM in test [10].

As to `COc1ccc2cc(-c3c(-c4ccncc4)nc(-c4ccc(S(C)=O)cc4C)n3C)ccc2c1` (configuration not stated), the GI50 was 24.7 µM in [1]; 24.7 µM in [2]; greater than 25 µM in [3]; greater than 25 µM in test [4]; greater than 25 µM in [5]; 14.1 µM in test [6]. Moreover, the GI50 is 17.9 µM in [7], greater than 20.8 µM in [8], greater than 25 µM in test [9] and greater than 25 µM in [10]. For the same compound, the TGI in test [1], in test [2], in [3], in test [4], in test [5] and in test [6] was greater than 25 µM in each case. Further, the TGI in [7], in test [8], in [9] and in [10] was greater than 25 µM in each case.

Take `COc1ccc(C(=O)C[C@]2(O)C(=O)Nc3c(Cl)ccc(Cl)c32)cc1`: the GI50 in test [1] was 0.92 µM; in test [2] it was 1.06 µM; in [3], 1.05 µM; in test [4] it was 0.627 µM; in test [5] it was 1.96 µM; in test [6], 0.589 µM. The GI50 in test [7] is 0.406 µM; in test [8], 0.199 µM; in test [9] it was 0.563 µM; in test [10] it was 1.51 µM. Also, the TGI in test [1] was greater than 77.3 µM; in test [2] it was greater than 100 µM; in [3] it was greater than 100 µM; in test [4] it was greater than 100 µM; in test [5] it was greater than 100 µM; in test [6], 30 µM. Also, the TGI in test [7] was 24.6 µM; in test [8], 0.972 µM; in test [9] it was greater than 100 µM; in test [10], greater than 100 µM.

As to `COc1ccc(-c2cc(/C=C/C(=O)c3cc(OC)c(OC)c(OC)c3)[nH]n2)cc1OC`, the GI50 in test [1] was 2.56 µM; in [2] it was 1.45 µM; in [3], 1.8 µM; in test [4] it was 2.69 µM; in test [5], 1.9 µM; in [6], 0.298 µM. Besides, the GI50 was 0.425 µM in test [7], 1.31 µM in test [8], 0.342 µM in test [9] and 1.97 µM in [10]. Also, the TGI in [1] is 11.7 µM; in test [2] it was 3.59 µM; in [3], 5.32 µM; in test [4], 7.7 µM; in [5], 3.4 µM; in test [6], 1.66 µM. Besides, the TGI was 1.79 µM in test [7], 3.77 µM in [8], 3.13 µM in [9] and 4.91 µM in test [10].

For the compound `Cc1cc(NC(=O)NC(=O)c2ccccc2N(C)C)ccc1Oc1ncc(Br)cn1`, the GI50 in [1] is 0.614 µM; in [3], 0.749 µM; in test [5], 1.1 µM; in test [6] it was 0.517 µM; in [7], 0.389 µM; in [8], 0.11 µM. In test [10], the GI50 was 2.51 µM. Moreover, the TGI in test [1] is greater than 68.1 µM; in test [2], 57.9 µM; in test [3], greater than 81.5 µM; in [4] it was greater than 46.4 µM; in test [5], 11.8 µM; in test [6], 39.4 µM. For the same compound, the TGI was 50.2 µM in test [7]; 0.428 µM and 0.555 µM in [8]; 3.5 µM and 11.8 µM in test [9]; 53.4 µM in test [10].

Take `COc1ccc(-c2nc3c(c(=O)n2C(C)=O)C(c2ccc(Cl)cc2)c2sc4c(Cl)cccc4c2O3)cc1` (configuration not stated): the GI50 in test [1] was 0.5 µM; in test [2] it was 0.275 µM; in test [3] it was 0.413 µM; in test [4], 0.374 µM; in test [5], 0.68 µM; in [6], 0.529 µM. The GI50 is 0.341 µM in [7], 0.738 µM in test [8], 0.462 µM in test [9] and 0.343 µM in [10]. Moreover, the TGI in test [1] came to 2.37 µM; in [2], 1.96 µM; in test [3], 2.01 µM; in [4] it was 1.69 µM; in test [5], 2.48 µM; in test [6] it was 5.1 µM. For the same compound, the TGI in [7] turned out to be 1.38 µM; in [8] it was 9.98 µM; in [9] it was 6.28 µM; in test [10] it was 2.09 µM.

For the compound `COc1ccc2[nH]c3c(=O)[nH]ncc3c2c1`, the TGI in test [1], in test [2], in [3], in test [4], in test [5] and in [6] was greater than 100 µM in each case. Besides, the TGI was greater than 100 µM in [7], 57.4 µM in [8], greater than 100 µM in [9] and greater than 100 µM in test [10].

The values above are taken from PubChem BioAssay (NCI).
